According to ChEMBL document CHEMBL1146960, “Synthesis and anticancer activity of thiosemicarbazones” (Bioorg Med Chem Lett, 2006):

Assays:
P388 [1] = assay: Antitumor activity against P388 cell line at 0.01 umol/L by MTT method; type: functional; conditions: Mus musculus
P388 [2] = assay: Antitumor activity against P388 cell line at 100 umol/L by MTT method; type: functional; conditions: Mus musculus
SGC-7901 [3] = assay: Antitumor activity against SGC7901 cell line at 0.1 umol/L by SRB method; type: functional; conditions: Homo sapiens
SGC-7901 [4] = assay: Antitumor activity against SGC7901 cell line at 100 umol/L by SRB method; type: functional; conditions: Homo sapiens
P388 [5] = assay: Antitumor activity against P388 cell line at 1 umol/L by MTT method; type: functional; conditions: Mus musculus
SGC-7901 [6] = assay: Antitumor activity against SGC7901 cell line at 0.01 umol/L by SRB method; type: functional; conditions: Homo sapiens
P388 [7] = assay: Antitumor activity against P388 cell line at 0.1 umol/L by MTT method; type: functional; conditions: Mus musculus
SGC-7901 [8] = assay: Antitumor activity against SGC7901 cell line at 1 umol/L by SRB method; type: functional; conditions: Homo sapiens
SGC-7901 [9] = assay: Antitumor activity against SGC7901 cell line at 10 umol/L by SRB method; type: functional; conditions: Homo sapiens
P388 [10] = assay: Antitumor activity against P388 cell line at 10 umol/L by MTT method; type: functional; conditions: Mus musculus
A549 [11] = assay: Antitumor activity against A549 cell line at 0.1 umol/L by SRB method; type: functional; conditions: Homo sapiens
A549 [12] = assay: Antitumor activity against A549 cell line at 1 umol/L by SRB method; type: functional; conditions: Homo sapiens
A549 [13] = assay: Antitumor activity against A549 cell line at 10 umol/L by SRB method; type: functional; conditions: Homo sapiens
SGC-7901 [14] = assay: Antitumor activity against SGC7901 cell line at 50 nmol/L by SRB method; type: functional; conditions: Homo sapiens
SGC-7901 [15] = assay: Antitumor activity against SGC7901 cell line by SRB method; type: functional, cell-based; conditions: Homo sapiens
SGC-7901 [16] = assay: Antitumor activity against SGC7901 cell line at 6.25 nmol/L by SRB method; type: functional; conditions: Homo sapiens
SGC-7901 [17] = assay: Antitumor activity against SGC7901 cell line at 25 nmol/L by SRB method; type: functional; conditions: Homo sapiens
SGC-7901 [18] = assay: Antitumor activity against SGC7901 cell line at 12.5 nmol/L by SRB method; type: functional; conditions: Homo sapiens

COc1ccc(N/C(S)=N/N=C(/C)c2cccs2)cc1
inhibition at 0.01 µM (P388 [1]): 0%
inhibition at 100 µM (P388 [2]): 25.9%
inhibition at 0.1 µM (SGC-7901 [3]): 0%
inhibition at 100 µM (SGC-7901 [4]): 65.1%
inhibition at 1 µM (P388 [5]): 6.9%
inhibition at 0.01 µM (SGC-7901 [6]): 0%
inhibition at 0.1 µM (P388 [7]): 3.6%
inhibition at 1 µM (SGC-7901 [8]): 0%
inhibition at 10 µM (SGC-7901 [9]): 29.2%
inhibition at 10 µM (P388 [10]): 5.2%

C/C(=N/N=C(\S)N1CCN(c2ccccn2)CC1)c1nccs1
inhibition at 0.1 µM (SGC-7901 [3]): 14.3%
inhibition at 1 µM (P388 [5]): 74.3%
inhibition at 0.1 µM (P388 [7]): 73.5%
inhibition at 0.1 µM (A549 [11]): 15.6%
inhibition at 1 µM (SGC-7901 [8]): 60.8%
inhibition at 1 µM (A549 [12]): 21.5%
inhibition at 10 µM (SGC-7901 [9]): 92.5%
inhibition at 10 µM (P388 [10]): 94.5%
inhibition at 10 µM (A549 [13]): 13.6%

C/C(=N/N=C(\S)Nc1ccc(Cl)cc1)c1cccs1
inhibition at 0.01 µM (P388 [1]): 0%
inhibition at 100 µM (P388 [2]): 21.6%
inhibition at 0.1 µM (SGC-7901 [3]): 0%
inhibition at 100 µM (SGC-7901 [4]): 56.7%
inhibition at 1 µM (P388 [5]): 0%
inhibition at 0.01 µM (SGC-7901 [6]): 0%
inhibition at 0.1 µM (P388 [7]): 0%
inhibition at 1 µM (SGC-7901 [8]): 0%
inhibition at 10 µM (SGC-7901 [9]): 12.7%
inhibition at 10 µM (P388 [10]): 9.9%

CCn1cc(C(=O)O)c(=O)c2cc(F)c(N3CCN(/C(S)=N/N=C(/C)c4ccccc4)CC3)cc21
inhibition at 1 µM (P388 [5]): 24.8%
inhibition at 0.1 µM (P388 [7]): 0%
inhibition at 0.1 µM (A549 [11]): 0%
inhibition at 1 µM (A549 [12]): 0.8%
inhibition at 10 µM (P388 [10]): 100%
inhibition at 10 µM (A549 [13]): 63.9%

C/C(=N/N=C(\S)N1CCN(c2ccccn2)CC1)c1ccc([N+](=O)[O-])cc1
inhibition at 1 µM (P388 [5]): 4.6%
inhibition at 0.1 µM (P388 [7]): 4.6%
inhibition at 0.1 µM (A549 [11]): 0%
inhibition at 1 µM (A549 [12]): 0%
inhibition at 10 µM (P388 [10]): 6.4%
inhibition at 10 µM (A549 [13]): 16.4%

C/C(=N/N=C(\S)N1CCN(c2ccccn2)CC1)c1ncccn1
inhibition at 0.05 µM (SGC-7901 [14]): 60.1%
inhibition at 0.1 µM (SGC-7901 [3]): 81.7%
IC50 (SGC-7901 [15]): 32 nM
inhibition at 0.00625 µM (SGC-7901 [16]): 18.4%
inhibition at 1 µM (P388 [5]): 89.4%
inhibition at 0.1 µM (P388 [7]): 28.3%
inhibition at 0.025 µM (SGC-7901 [17]): 48.4%
inhibition at 0.1 µM (A549 [11]): 12.6%
inhibition at 1 µM (SGC-7901 [8]): 90%
inhibition at 1 µM (A549 [12]): 18.5%
inhibition at 10 µM (SGC-7901 [9]): 90%
inhibition at 10 µM (P388 [10]): 96.5%
inhibition at 10 µM (A549 [13]): 79.3%
inhibition at 0.0125 µM (SGC-7901 [18]): 31.7%

C/C(=N/NC(=S)N1CCN(c2ccccn2)CC1)c1ccccn1
inhibition at 1 µM (P388 [5]): 12.8%
inhibition at 0.1 µM (P388 [7]): 13.8%
inhibition at 0.1 µM (A549 [11]): 24.6%
inhibition at 1 µM (A549 [12]): 19.7%
inhibition at 10 µM (P388 [10]): 100%
inhibition at 10 µM (A549 [13]): 100%

C/C(=N/N=C(\S)Nc1ccc(C)cc1)c1cccs1
inhibition at 0.01 µM (P388 [1]): 0%
inhibition at 100 µM (P388 [2]): 8.4%
inhibition at 0.1 µM (SGC-7901 [3]): 9.6%
inhibition at 100 µM (SGC-7901 [4]): 67.8%
inhibition at 1 µM (P388 [5]): 5.7%
inhibition at 0.01 µM (SGC-7901 [6]): 8.8%
inhibition at 0.1 µM (P388 [7]): 10.8%
inhibition at 1 µM (SGC-7901 [8]): 15%
inhibition at 10 µM (SGC-7901 [9]): 33.9%
inhibition at 10 µM (P388 [10]): 9.2%

C/C(=N/N=C(\S)Nc1ccc([N+](=O)[O-])cc1)c1cccs1
inhibition at 0.01 µM (P388 [1]): 10.3%
inhibition at 100 µM (P388 [2]): 8.6%
inhibition at 0.1 µM (SGC-7901 [3]): 14.5%
inhibition at 100 µM (SGC-7901 [4]): 51.7%
inhibition at 1 µM (P388 [5]): 2.1%
inhibition at 0.01 µM (SGC-7901 [6]): 9.1%
inhibition at 0.1 µM (P388 [7]): 3.6%
inhibition at 1 µM (SGC-7901 [8]): 8.3%
inhibition at 10 µM (SGC-7901 [9]): 35.7%
inhibition at 10 µM (P388 [10]): 0%

C/C(=N/N=C(\S)N1CCN(c2ccccn2)CC1)c1ccc(Cl)cc1
inhibition at 1 µM (P388 [5]): 0%
inhibition at 0.1 µM (P388 [7]): 0%
inhibition at 0.1 µM (A549 [11]): 0.8%
inhibition at 1 µM (A549 [12]): 0%
inhibition at 10 µM (P388 [10]): 0%
inhibition at 10 µM (A549 [13]): 0%

C/C(=N/N=C(\S)N1CCN(c2ccccn2)CC1)c1ccc(N)cc1
inhibition at 1 µM (P388 [5]): 4.6%
inhibition at 0.1 µM (P388 [7]): 12.1%
inhibition at 0.1 µM (A549 [11]): 0%
inhibition at 1 µM (A549 [12]): 0%
inhibition at 10 µM (P388 [10]): 30.3%
inhibition at 10 µM (A549 [13]): 46.8%

C/C(=N/N=C(\S)N1CCN(c2ccccn2)CC1)c1ccccc1
inhibition at 1 µM (P388 [5]): 0%
inhibition at 0.1 µM (P388 [7]): 0%
inhibition at 0.1 µM (A549 [11]): 0%
inhibition at 1 µM (A549 [12]): 0%
inhibition at 10 µM (P388 [10]): 4.6%
inhibition at 10 µM (A549 [13]): 0.8%

C/C(=N/N=C(\S)Nc1ccccc1C)c1cccs1
inhibition at 0.01 µM (P388 [1]): 0%
inhibition at 100 µM (P388 [2]): 91.9%
inhibition at 0.1 µM (SGC-7901 [3]): 0%
inhibition at 100 µM (SGC-7901 [4]): 73.5%
inhibition at 1 µM (P388 [5]): 0%
inhibition at 0.01 µM (SGC-7901 [6]): 7.1%
inhibition at 0.1 µM (P388 [7]): 5.9%
inhibition at 1 µM (SGC-7901 [8]): 5.5%
inhibition at 10 µM (SGC-7901 [9]): 41.6%
inhibition at 10 µM (P388 [10]): 1.3%
